We go through two molecules from patent US20050048508A1, “Trehalose receptor and method for detecting trehalose with the same” (KABUSHIKI KAISHA HAYASHIBARA SEIBUTSU KAGAKU KENKYUJO, priority 2002, published 2005).

The target of the experiment is T1, T1R1 and T1R3 with G protein α-subunits (α15 and α16/Z chimeric protein) (Mus musculus, UniProt Q925D8+Q99PG6, I706N).
T1 construct: expressed in transfected cells; host or cells: 293 cells, RCB 1637 (human embryonic kidney)
T1 sequence (Q99PG6 20-842 L120P/N244D/D281A/N309Y/P311T/S314P/H418Y): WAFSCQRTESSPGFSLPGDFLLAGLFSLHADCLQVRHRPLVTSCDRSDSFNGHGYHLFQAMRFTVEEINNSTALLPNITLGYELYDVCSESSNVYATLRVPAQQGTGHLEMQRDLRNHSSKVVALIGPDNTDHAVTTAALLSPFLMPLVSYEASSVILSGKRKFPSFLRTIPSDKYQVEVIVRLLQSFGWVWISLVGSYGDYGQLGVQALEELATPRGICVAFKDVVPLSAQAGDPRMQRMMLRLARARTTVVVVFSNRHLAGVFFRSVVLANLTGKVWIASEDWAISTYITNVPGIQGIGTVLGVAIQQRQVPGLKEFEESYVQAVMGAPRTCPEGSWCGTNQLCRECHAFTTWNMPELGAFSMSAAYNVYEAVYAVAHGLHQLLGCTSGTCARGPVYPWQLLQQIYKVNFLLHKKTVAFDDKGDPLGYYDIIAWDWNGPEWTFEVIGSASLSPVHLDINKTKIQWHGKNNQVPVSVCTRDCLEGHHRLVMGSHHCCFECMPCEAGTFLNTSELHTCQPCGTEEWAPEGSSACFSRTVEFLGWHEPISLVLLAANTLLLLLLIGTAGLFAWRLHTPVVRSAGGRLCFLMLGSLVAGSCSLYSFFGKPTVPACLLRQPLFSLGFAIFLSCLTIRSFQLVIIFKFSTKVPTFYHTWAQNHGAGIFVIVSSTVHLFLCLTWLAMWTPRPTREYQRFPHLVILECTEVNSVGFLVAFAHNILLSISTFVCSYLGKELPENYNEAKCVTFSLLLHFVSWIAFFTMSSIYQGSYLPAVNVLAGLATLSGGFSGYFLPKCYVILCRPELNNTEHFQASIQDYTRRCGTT
T1 sequence (Q925D8 21-858 I706N): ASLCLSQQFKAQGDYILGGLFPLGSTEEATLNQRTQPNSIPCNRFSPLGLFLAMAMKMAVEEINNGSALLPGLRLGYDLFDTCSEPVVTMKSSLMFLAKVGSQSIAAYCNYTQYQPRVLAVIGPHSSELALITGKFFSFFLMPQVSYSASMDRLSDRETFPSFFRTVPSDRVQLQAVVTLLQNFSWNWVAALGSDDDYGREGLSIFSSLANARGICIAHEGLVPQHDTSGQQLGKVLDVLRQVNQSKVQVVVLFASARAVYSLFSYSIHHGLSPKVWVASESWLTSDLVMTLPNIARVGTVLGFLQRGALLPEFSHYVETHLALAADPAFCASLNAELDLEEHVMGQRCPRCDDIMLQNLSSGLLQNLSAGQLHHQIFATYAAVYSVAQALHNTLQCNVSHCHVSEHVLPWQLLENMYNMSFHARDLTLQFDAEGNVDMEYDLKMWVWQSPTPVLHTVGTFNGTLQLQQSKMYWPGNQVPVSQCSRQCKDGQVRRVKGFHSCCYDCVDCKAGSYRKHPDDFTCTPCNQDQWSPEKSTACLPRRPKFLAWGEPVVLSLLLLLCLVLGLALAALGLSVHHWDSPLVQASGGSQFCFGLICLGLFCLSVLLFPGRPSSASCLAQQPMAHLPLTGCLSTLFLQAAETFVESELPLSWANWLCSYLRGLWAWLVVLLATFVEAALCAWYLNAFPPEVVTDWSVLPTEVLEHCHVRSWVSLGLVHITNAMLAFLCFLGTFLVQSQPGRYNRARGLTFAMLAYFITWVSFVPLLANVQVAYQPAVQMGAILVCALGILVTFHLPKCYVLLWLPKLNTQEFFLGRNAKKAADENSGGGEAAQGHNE
Kind of experiment: Intracellular calcium ion assay, 293 cells coexpressing G protein α-subunits, T1R1 and T1R3. Type of experiment: cell-based. To be noted: 293 cells: T1R1 + T1R3 + G protein α-subunits; 0.67 ml of 1 M saccharide solution added to 2 ml cell suspension; FLUO-4 AM. On the procedure: The coexpression vector for the G protein α-subunit α15 and the G protein α16/Z chimeric protein (hereinafter designated as “G protein α-subunits”) obtained in Example 1-3 was gene transferred to 293 cells, RCB 1637, a human embryonic kidney cell line, available from the Riken Bioresource Center, Ibaraki, Japan, by conventional lipofection. The gene transferred cells were suspended in Dulbecco's Modified Eagle's Medium (D-MEM) supplemented with 1 mg/L of “PUROMYCIN”, a trade mane of puromycin commercialized by Edge Biosystems, MD, USA, and 10% (v/v) of fetal calf serum to give a cell density of 2×10^6 cells/ml and cultured in a plastic petri dish for cell culture. […]
The captioned reactivity test was conducted according to a conventional intracellular calcium ion assay: 293 Cells prepared in Example 3, capable of coexpressing the G protein α-subunits and the sweet taste receptor(s), were cultured in a plastic petri dish for cell culture until reaching its confluent phase. […] Two milliliters of the resultant cell suspension was injected into a glass cuvette, commercialized by Hitachi, Ltd., Tokyo, Japan, and analyzed on “HITACHI 650-40”, a fluorescence spectrophotometer commercialized by Hitachi, Ltd., Tokyo, Japan. […]
In general terms: Calcium assays in cells follow changes in intracellular calcium, usually with a dye or a luminescent sensor.

Each structure is given as a SMILES string.

For the molecule `OC[C@H]1O[C@@](CO)(O[C@H]2O[C@H](CO)[C@@H](O)[C@H](O)[C@H]2O)[C@@H](O)[C@@H]1O` [Sucrose, reference compound], the “Influx of calcium ion” value is on record as “Negative”.
On to `OC[C@H]1O[C@H](O[C@H]2O[C@H](CO)[C@@H](O)[C@H](O)[C@H]2O)[C@H](O)[C@@H](O)[C@@H]1O` [Trehalose], for which the “Influx of calcium ion” value is reported as “Positive”.
